Test results: PubChem BioAssay (NCI)
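Dose response: 5 concentrations. Exposure: 48 h. Format: 96-well plates. Endpoint: linear interpolation; highest concentration if not reached. TGI marks complete inhibition of growth.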

Key:
Assay in all cases: NCI anticancer screen, dose series, 48 h
[1] = tested on: CAKI-1 renal
[2] = tested on: EKVX NSCLC
[3] = tested on: HOP-62 NSCLC
[4] = tested on: KM12 colon
[5] = tested on: NCI-H226 lung
[6] = tested on: SN12C renal
[7] = tested on: T-47D breast
[8] = tested on: HOP-92 NSCLC
[9] = tested on: UO-31 renal

## CC(=O)N=C1N(/C=C2\C(=O)Oc3ccccc3C2=O)C(=O)/C(=C/c2ccc(NC(C)=O)cc2)N1C
[1]
  TGI: > 100 µM
[2]
  TGI: > 100 µM
[3]
  TGI: > 100 µM
[4]
  TGI: > 100 µM
[5]
  TGI: > 100 µM
[6]
  TGI: > 100 µM
[7]
  TGI: > 100 µM

## O=S(=O)(/N=C(\NO)Nc1ccc(Cl)cc1)c1cccc2nsnc12
[1]
  TGI: 70 µM
[2]
  TGI: 66 µM
[3]
  TGI: > 100 µM
[8]
  TGI: 73.7 µM
[4]
  TGI: > 100 µM
[5]
  TGI: > 100 µM
[6]
  TGI: 63.1 µM
[7]
  TGI: > 100 µM
[9]
  TGI: > 100 µM

## CC(=O)N=C1N(/C=C2\C(=O)Oc3ccccc3C2=O)C(=O)/C(=C/c2ccc(Cl)cc2Cl)N1C
[1]
  TGI: > 100 µM
[2]
  TGI: > 100 µM
[3]
  TGI: > 100 µM
[4]
  TGI: > 100 µM
[5]
  TGI: > 100 µM
[6]
  TGI: > 100 µM
[7]
  TGI: > 100 µM

## COC(=O)[C@H](Cc1c[nH]c2ccccc12)NC(=O)c1ccc(CNC(=O)/C=C/c2cccc(Oc3ccccc3)c2)cc1
[1]
  TGI: > 100 µM
[2]
  TGI: > 100 µM
[3]
  TGI: > 100 µM
[8]
  TGI: > 100 µM
[4]
  TGI: > 100 µM
[5]
  TGI: > 100 µM
[6]
  TGI: > 100 µM
[7]
  TGI: > 100 µM
[9]
  TGI: > 100 µM

## C[N+]1(CCCl)CC[N+](C)(CCCl)CC1 (stereo not drawn)
[1]
  TGI: > 100 µM
[2]
  TGI: > 100 µM
[3]
  TGI: > 100 µM
[4]
  TGI: > 100 µM
[5]
  TGI: > 100 µM
[6]
  TGI: > 100 µM
[7]
  TGI: > 100 µM
[9]
  TGI: > 100 µM

## Cc1csc(/N=C\c2c(O)c3ccccc3oc2=O)n1
[1]
  TGI: 34.1 µM
[2]
  TGI: 99.3 µM
[8]
  TGI: 89.8 µM
[4]
  TGI: > 100 µM
[5]
  TGI: > 100 µM
[9]
  TGI: 75.9 µM

## Cc1c2c(OCCN3CCCCC3)nn(C)c(=O)c2c(C)n1-c1ccccc1
[1]
  TGI: > 100 µM
[2]
  TGI: > 100 µM
[3]
  TGI: > 100 µM
[8]
  TGI: > 100 µM
[4]
  TGI: > 100 µM
[5]
  TGI: > 100 µM
[6]
  TGI: > 100 µM
[7]
  TGI: > 100 µM
[9]
  TGI: 29.1 µM

## CN(C)CCCn1nc(N)c2nc3cc(Cl)ccc3nc21
[1]
  TGI: > 100 µM
[2]
  TGI: > 100 µM
[3]
  TGI: > 100 µM
[8]
  TGI: 76.7 µM
[4]
  TGI: > 100 µM
[5]
  TGI: > 100 µM
[6]
  TGI: > 100 µM
[7]
  TGI: > 100 µM
[9]
  TGI: > 92.6 µM

## CCNC(=O)c1c(O)c2ccccc2[nH]c1=O
[1]
  TGI: > 100 µM
[2]
  TGI: > 100 µM
[3]
  TGI: > 100 µM
[8]
  TGI: > 100 µM
[4]
  TGI: > 100 µM
[5]
  TGI: > 100 µM
[6]
  TGI: > 100 µM
[9]
  TGI: > 100 µM

## CCN(CC)CCNC(=O)c1cn2c(ccc3sc4ccccc4c(=O)c32)n1
[1]
  TGI: 24.2 µM
[2]
  TGI: 35.3 µM
[3]
  TGI: 21.4 µM
[8]
  TGI: 24.6 µM
[4]
  TGI: 24.9 µM
[5]
  TGI: 40.6 µM
[6]
  TGI: 23.7 µM
[7]
  TGI: 30 µM
[9]
  TGI: 21 µM

## C=C1C(=O)O[C@@H]2C[C@]3(C)CC[C@]4(C)[C@H](CC[C@@H]5[C@@]6(C)CCC(=O)C(C)(C)[C@@H]6CC[C@]54C)[C@H]3[C@H]12
[1]
  TGI: 30.2 µM
[2]
  TGI: 38 µM
[3]
  TGI: 49.2 µM
[8]
  TGI: 26.2 µM
[4]
  TGI: 42.8 µM
[5]
  TGI: 38.4 µM
[6]
  TGI: 36.4 µM
[7]
  TGI: 34 µM
[9]
  TGI: 28.3 µM

## COc1ccc(C2C3COc4ccccc4C3=NN2c2ccccc2)cc1 (stereo not drawn)
[1]
  TGI: > 100 µM
[2]
  TGI: > 100 µM
[3]
  TGI: > 100 µM
[8]
  TGI: > 100 µM
[4]
  TGI: > 100 µM
[5]
  TGI: > 100 µM
[7]
  TGI: > 100 µM
[9]
  TGI: > 100 µM

## CC1C2(C)OC(=N)C(C#N)(C(c3cccc([N+](=O)[O-])c3)O2)C1(C#N)C#N (stereo not drawn)
[1]
  TGI: 24.4 µM
[2]
  TGI: 98.3 µM
[8]
  TGI: 33.1 µM
[4]
  TGI: > 100 µM
[5]
  TGI: > 100 µM
[6]
  TGI: 28.1 µM
[7]
  TGI: 35.9 µM
[9]
  TGI: > 100 µM

## O=C(Cc1ccccc1)Nn1c(-c2ccccc2)nc2ccccc2c1=O
[2]
  TGI: > 100 µM
[3]
  TGI: > 100 µM
[8]
  TGI: > 100 µM
[4]
  TGI: > 100 µM
[5]
  TGI: > 100 µM
[6]
  TGI: > 100 µM
[7]
  TGI: > 100 µM
[9]
  TGI: > 100 µM

## CCOC(=O)c1sc2[n+](c1C)C(=O)/C(=C/c1ccc([N+](=O)[O-])cc1)S2
[1]
  TGI: 37.7 µM
[3]
  TGI: 74 µM
[8]
  TGI: > 100 µM
[4]
  TGI: 47.5 µM
[5]
  TGI: 58.4 µM
[6]
  TGI: > 100 µM
[7]
  TGI: 77.2 µM
[9]
  TGI: 33.4 µM

## CC1(C)C2CC(=O)C1(C)C(OCc1ccccc1)C2 (stereo not drawn)
[1]
  TGI: > 100 µM
[2]
  TGI: > 100 µM
[3]
  TGI: > 100 µM
[4]
  TGI: > 100 µM
[5]
  TGI: > 100 µM
[6]
  TGI: > 100 µM
[7]
  TGI: > 100 µM
[9]
  TGI: > 100 µM

## NC1=CN2c3ccccc3N(CC(=O)O)C2C=C1 (stereo not drawn)
[1]
  TGI: > 100 µM
[2]
  TGI: > 100 µM
[3]
  TGI: > 100 µM
[8]
  TGI: > 100 µM
[4]
  TGI: > 100 µM
[5]
  TGI: > 100 µM
[7]
  TGI: > 100 µM
[9]
  TGI: > 100 µM

## Cc1ccc2oc(=O)c(C(=O)Nc3nc(C45CC6CC(CC(C6)C4)C5)cs3)cc2c1
[1]
  TGI: > 100 µM
[2]
  TGI: > 100 µM
[3]
  TGI: > 100 µM
[8]
  TGI: > 100 µM
[4]
  TGI: > 100 µM
[5]
  TGI: > 100 µM
[6]
  TGI: > 100 µM
[9]
  TGI: > 100 µM

## CC(C)=CCC/C(C)=C/CC/C(C)=C/CC/C(=C/CC/C(C)=C\CC/C(C)=C/CC/C(C)=C/CC/C(C)=C/Cc1cc(O)ccc1O)CO
[1]
  TGI: 4.82 µM
[2]
  TGI: 33.5 µM
[3]
  TGI: 41.3 µM
[8]
  TGI: 31.4 µM
[4]
  TGI: 4.16 µM
[5]
  TGI: 6.54 µM
[6]
  TGI: > 100 µM
[9]
  TGI: 21.4 µM

## C=C1C(=O)O[C@H]2[C@@H](O)[C@H](C)CCC[C@]3(C)O[C@H]3CC[C@@]3(C)O[C@@H]3C[C@@H]12
[1]
  TGI: 13 µM
[2]
  TGI: 11.3 µM
[3]
  TGI: 14.3 µM
[4]
  TGI: 15.3 µM
[5]
  TGI: 14.5 µM
[6]
  TGI: 13.2 µM
[7]
  TGI: 19.9 µM
[9]
  TGI: 12.4 µM

## COc1ccc(CN=C(N)N)c2ccccc12
[1]
  TGI: > 100 µM
[2]
  TGI: > 100 µM
[3]
  TGI: > 100 µM
[4]
  TGI: > 100 µM
[5]
  TGI: > 100 µM
[6]
  TGI: 52.4 µM
[7]
  TGI: > 100 µM
[9]
  TGI: 87.9 µM

## O=C(CNc1ccccc1[N+](=O)[O-])Nn1c(-c2ccccc2)nc2ccccc2c1=O
[2]
  TGI: 36.2 µM
[3]
  TGI: 42.8 µM
[8]
  TGI: 28.3 µM
[4]
  TGI: > 10 µM
[5]
  TGI: 93 µM
[6]
  TGI: 63.1 µM
[7]
  TGI: 39.2 µM
[9]
  TGI: 33.7 µM

## O=CC12C3CCC1C2C(=O)C3 (stereo not drawn)
[1]
  TGI: > 100 µM
[2]
  TGI: > 100 µM
[3]
  TGI: > 100 µM
[8]
  TGI: > 100 µM
[4]
  TGI: > 100 µM
[5]
  TGI: > 100 µM
[6]
  TGI: > 100 µM

## CN(C)C(=O)OC(Cn1cncn1)(Cn1cncn1)c1ccc(Cl)cc1Cl
[1]
  TGI: > 100 µM
[2]
  TGI: > 100 µM
[3]
  TGI: > 100 µM
[8]
  TGI: > 100 µM
[4]
  TGI: > 100 µM
[5]
  TGI: > 100 µM
[7]
  TGI: > 100 µM
[9]
  TGI: > 100 µM
